Assay results published in patent US10927141B2 (priority 2018, dated 2021).
Read-outs that look alike come from different tables or passages of the source.

How the values were obtained:
[1] = Bulk density for salts of Compound 1; type: physicochemical; conditions: Form A
[2] = type: physicochemical; conditions: 1 w
Method: For each salt, approximately 5 mg compound was added into an 8 mL glass vial with a multi-hole aluminum foil cap, and kept at 60° C., 40° C./75% RH for 1 week. […] Appearance by visual observation were recorded followed by purity assessment and XPRD data collection on the residual solids.

[3] = type: physicochemical
[4] = type: physicochemical; conditions: 37° C., 24 h
[5] = Dynamic vapor sorption (DVS), gravimetric moisture sorption; type: physicochemical; conditions: at 80% Relative Humidity, 25° C.
Method: Dynamic Vapor Sorption (DVS) were collected conducted using an SMS DVS Advantage 1 system. For each sample analyzed approximately 10 mg of material was transferred into the DVS instrument and recorded the weight change with respect to the atmospheric humidity at 25° C. using the following parameters: Equilibrium dm/dt: 0.01%/min, (for min: 10 min and max: 180 min); drying setting were 0% RH for 120 min; RH (%) measurement step at 10% and RH (%) measurement step scope of 0-90-0%.

[6] = 40° C./75% RH, listed as Hydrobromide (Form A)
[7] = 60° C., listed as Hydrobromide (Form A)
[8] = 1.2 million lux-hrs, listed as Hydrobromide (Form A)
[9] = Dark control, listed as Hydrobromide (Form A)
[10] = 40° C./75% RH, listed as Hydrobromide (Form C)
[11] = 60° C., listed as Hydrobromide (Form C)
[12] = 1.2 million lux-hrs, listed as Hydrobromide (Form C)
[13] = Dark control, listed as Hydrobromide (Form C)

## O=C(O)CC(O)(CC(=O)O)C(=O)O [Citrate]
[1]
  Bulk Density: 0.49 g/mL
  Tapped Density: 0.70 g/mL

## Br.COC[C@@]1(O)CC[C@@]2(C)[C@@H](CC[C@@H]3[C@@H]2CC[C@]2(C)[C@@H](C(=O)Cn4ccnc4)CC[C@@H]32)C1 [Compound 1 HBr (Form A)]
[2]; [6]
  Final purity: 98.2
  XRPD pattern: Form A
[2]; [7]
  Final purity: 98.0
  XRPD pattern: Form A
[3]; [8]
  Final purity: 98.2
  XRPD pattern: Form A
[3]; [9]
  Final purity: 97.9
  XRPD pattern: Form A
[4]; FaSSIF (original pH = 6.51), listed as Hydrobromide (Form A)
  Final pH: 4.11
[4]; FeSSIF (original pH = 4.99), listed as Hydrobromide (Form A)
  Final pH: 5.01
[4]; SGF (original pH = 1.82)
  Final pH: 1.91
[5]
  gravimetric moisture sorption: about 1.1 % (by weight)

## Br.COCC1(O)CCC2(C)C(CCC3C2CCC2(C)C(C(=O)Cn4ccnc4)CCC32)C1 (centres unmarked) [Compound 1 HBr (Form B)]
[2]; 40° C./75% RH
  Final purity: 98.9
  XRPD pattern: Form B
[2]; 60° C.
  Final purity: 98.8
  XRPD pattern: Form B
[3]; 1.2 million lux-hrs
  Final purity: 98.4
  XRPD pattern: Form B
[3]; Dark control
  Final purity: 97.8
  XRPD pattern: Form B
[4]; FaSSIF (original pH = 6.51)
  Final pH: 5.51
[4]; FeSSIF (original pH = 4.99)
  Final pH: 4.89
[4]; SGF (original pH = 1.82)
  Final pH: 1.89
[5]
  gravimetric moisture sorption: about 0.2 % (by weight)

## Br.COC[C@@]1(O)CC[C@@]2(C)[C@@H](CC[C@@H]3[C@@H]2CC[C@]2(C)[C@@H](C(=O)Cn4ccnc4)CC[C@@H]32)C1 [Compound 1 HBr (Form C)]
[2]; [10]
  Final purity: 98.4
  XRPD pattern: Form C + B
[2]; [11]
  Final purity: 98.1
  XRPD pattern: Form C + B
[3]; [12]
  Final purity: 98.1
  XRPD pattern: Form C + B
[3]; [13]
  Final purity: 98.0
  XRPD pattern: Form C + B
[4]; FaSSIF (original pH = 6.51), listed as Hydrobromide (Form C)
  Final pH: 4.90
[4]; FeSSIF (original pH = 4.99), listed as Hydrobromide (Form C)
  Final pH: 5.05
[4]; SGF (original pH = 1.82), listed as Hydrobromide (Form C)
  Final pH: 1.99
[5]
  gravimetric moisture sorption: about 0.25 % (by weight)

## Br.COC[C@@]1(O)CC[C@@]2(C)[C@@H](CC[C@@H]3[C@@H]2CC[C@]2(C)[C@@H](C(=O)Cn4ccnc4)CC[C@@H]32)C1 [HBr]
[1]
  Bulk Density: 0.27 g/mL
  Tapped Density: 0.50 g/mL

## COCC1(O)CCC2(C)C(CCC3C2CCC2(C)C(C(=O)Cn4ccnc4)CCC32)C1.O=P(O)(O)O (centres unmarked) [Phosphate]
[1]
  Bulk Density: 0.15 g/mL
  Tapped Density: 0.33 g/mL

## O=C(O)C(O)C(O)C(=O)O (centres unmarked) [Tartrate]
[1]
  Bulk Density: 0.13 g/mL
  Tapped Density: 0.32 g/mL
